Data set [1] in a line: Physical stability, dynamic light scattering assay (Example 15). The data set is classed as physicochemical. The following applies: for Apparent Rh [nm] 4 weeks / Scattering Intensity (I) [%] 4 weeks: 4 weeks at 40° C. The procedure, abridged:
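DLS at 837 nm, 150° angle, +25° C; Rh, scattering intensity and mass contribution measured at 0 weeks and after 4 weeks at 40° C. Rh and D compared at 1, 5 and 10 mg/ml as kD surrogate; separate measurements at 300 μM, purity-corrected.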

The nature of data set [2]: Solubility in buffer systems by UPLC-UV (Example 13). The data set is classed as physicochemical. The procedure, abridged:
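The supernatant was diluted 1:10 and quantified by UPLC-UV peak area against a reference standard curve, correcting for sequence-based extinction coefficients.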

In another data set the target is T1, human CRF2α receptor (Homo sapiens, UniProt Q13324).
T1 construct: expressed in transfected cells; host or cells: TeloHEAC
T1 sequence (Q13324 1-411): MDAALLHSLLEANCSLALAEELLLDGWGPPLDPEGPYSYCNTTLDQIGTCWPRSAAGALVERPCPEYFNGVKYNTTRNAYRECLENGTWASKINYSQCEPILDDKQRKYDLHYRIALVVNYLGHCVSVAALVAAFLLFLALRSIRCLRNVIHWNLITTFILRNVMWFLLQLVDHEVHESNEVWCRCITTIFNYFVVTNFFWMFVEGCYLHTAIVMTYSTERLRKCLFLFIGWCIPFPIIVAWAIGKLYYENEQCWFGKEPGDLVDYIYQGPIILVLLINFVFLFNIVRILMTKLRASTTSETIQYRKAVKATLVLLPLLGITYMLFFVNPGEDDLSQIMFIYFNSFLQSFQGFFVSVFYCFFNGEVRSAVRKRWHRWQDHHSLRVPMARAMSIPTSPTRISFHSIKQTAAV
The experiment in a line: cAMP agonism at human CRF2 α receptor in TeloHEAC cells (Example 7). The data set is classed as cell-based. The following applies: cAMP HTRF, TeloHEAC cells stably expressing human CRF2 α. The procedure, abridged:
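HTRF ratio 665/620 nm, read 1 h after lysis reagents, reports cAMP. Cells: thawed stocks, 2000/well, 30 min RT with compound in HBSS, 20 mM HEPES, 0 or 0.1% HSA, 2 mM IBMX. Activity normalised to UCN2 1000 nM = 100%; EC50 from half-maximal activation.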
(In general: TR-FRET usually uses a lanthanide donor and a delayed reading to cut background.)

The subject of another data set is rat CRF2R α receptor. Kind of data set: cAMP agonism at rat CRF2R α receptor in A7R5 rat aortic smooth muscle cells (Example 8). The conditions noted are these: cAMP HTRF, A7R5 rat aortic smooth muscle cell line, 0% HSA. The data set is classed as cell-based. The procedure, abridged:
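Thawed cryopreserved A7R5 cells in HBSS/20 mM HEPES (0 or 0.1% HSA) with 2 mM IBMX, 2000 cells/well, were exposed to compound for 30 min at room temperature. cAMP was read by HTRF (665/620 nm ratio) after 1 h with lysis reagents. Activity was normalised to 1000 nM urocortin 2 as 100%, and EC50 was taken as the concentration giving 50% of maximal activation.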

[3] abbreviates: Buffer A (100 mM acetate, pH 4.5).
The mark [4] stands for this setting: Buffer D (20 mM phosphate, pH 7.4).
Setting [5] is: pH 4.5, Solubility in Buffer A [mg/ml].
The mark [6] stands for this setting: pH 4.5, Solubility in Buffer B [mg/ml].
Setting [7] is: pH 7.4, Solubility in Buffer C [mg/ml].
Where [8] appears, read: 0% HSA, read-out: EC50 [nM], 0% HSA.
Setting [9] is: 0.1% HSA, read-out: EC50 [nM], 0.1% HSA.
Setting [10] is: Buffer B (100 mM acetate, pH 4.5, 2.7 mg/ml m-cresol).
Setting [11] is: Buffer E (20 mM acetate, pH 4.5).

As a reminder, the solubility is the dissolved amount per volume that the medium holds. What is called EC50 is the concentration at which the effect is half-maximal.

Each structure is given as a SMILES string. Values after ≈ are worked out from the molar mass of the structure shown. Like-named read-outs stand apart in the source and are kept apart here. Starred links: 1 amine or outer side, 2 acyl side, 3 side chain; linkers in the order of their positions; H or OH if unused. Non-standard residues stand in square brackets, D forms with d. Residues, ends and D or L forms follow the SMILES beside them. Groups on a side chain read outwards from the residue. *: point of attachment. C18 diacid = O=C(O)CCCCCCCCCCCCCCCCC(=O)*; γGlu = O=C(O)[C@H](CCC(=O)[*:2])N[*:1]; AEEA = NCCOCCOCC(=O)O; Aib = CC(C)(N)C(=O)O

Regarding `CC[C@H](C)[C@H](N)C(=O)N[C@H](C(=O)N[C@@H](CC(C)C)C(=O)N[C@@H](CO)C(=O)N[C@@H](CC(C)C)C(=O)N[C@@H](CC(=O)O)C(=O)N[C@@H](C(=O)N1CCC[C@H]1C(=O)N[C@H](C(=O)N[C@@H](CCCCN)C(=O)N[C@@H](CC(C)C)C(=O)N[C@@H](CCCCNC(=O)COCCOCCNC(=O)COCCOCCNC(=O)CC[C@H](NC(=O)CCCCCCCCCCCCCCCCC(=O)O)C(=O)O)C(=O)N[C@@H](CCC(N)=O)C(=O)N[C@H](C(=O)N[C@@H](CC(C)C)C(=O)N[C@@H](CC(C)C)C(=O)N[C@@H](CCCCN)C(=O)N[C@@H](CCC(N)=O)C(=O)N[C@@H](CCC(=O)O)C(=O)N[C@@H](CCCNC(=N)N)C(=O)N[C@@H](CCC(N)=O)C(=O)N[C@@H](CCCCN)C(=O)N[C@@H](CCCCN)C(=O)NC(C)(C)C(=O)N[C@@H](CCCNC(=N)N)C(=O)N[C@@H](CCC(N)=O)C(=O)N[C@@H](CCCCN)C(=O)N[C@@H](C)C(=O)N[C@@H](CCC(=O)O)C(=O)N[C@@H](CCCCN)C(=O)N[C@@H](CC(N)=O)C(=O)N[C@@H](CCCCN)C(=O)N[C@@H](CCC(N)=O)C(=O)N[C@H](C(=O)N[C@@H](CC(C)C)C(=O)N[C@@H](C)C(=O)N[C@@H](CCC(N)=O)C(=O)N[C@H](C(N)=O)C(C)C)[C@@H](C)CC)[C@@H](C)CC)[C@@H](C)CC)C(C)C)C(C)C` [compound 136] (H-IVLSLD[dV]PIKLK([AEEA-AEEA-γGlu-C18 diacid])QILLKQERQKK[Aib]RQKAEKNKQILAQV-NH2; N-terminus assumed), the “Apparent Rh [nm] 0 weeks” value in data set [1] (setting [3]) came to 2.75 ± 0.14 nm; in data set [1] (setting [4]) it was 2.40 ± 0.15 nm. Also, the “Scattering Intensity (I) [%] 0 weeks” value in data set [1] (setting [3]) and in data set [1] (setting [4]) was 98 ± 3% throughout. Also, the figures for the “Apparent Rh [nm] 4 weeks” value in data set [1] (setting [3]) and in data set [1] (setting [4]) were 2.70 ± 0.28 nm and 2.48 ± 0.07 nm, respectively. The entries for the “Scattering Intensity (I) [%] 4 weeks” value in data set [1] (setting [3]) and in data set [1] (setting [4]) were 97 ± 2% and 98 ± 2%, respectively. The solubility at 1 h in data set [2] (setting [5]) is more than 8400 µg/mL; in data set [2] (setting [6]), more than 8600 µg/mL; in data set [2] (setting [7]), 7800 µg/mL (≈ 1510 µM). In addition, the figures for the EC50 at human CRF2α receptor (setting [8]), on human CRF2α receptor (setting [9]) and in the data set with rat CRF2R α receptor were 0.05 nM, 2.41 nM and 0.38 nM, respectively.
`CC[C@H](C)[C@H](N)C(=O)N[C@H](C(=O)N[C@@H](CC(C)C)C(=O)N[C@@H](CO)C(=O)N[C@@H](CC(C)C)C(=O)N[C@@H](CC(=O)O)C(=O)N[C@@H](C(=O)N1CCC[C@H]1C(=O)N[C@H](C(=O)N[C@@H](CCCCN)C(=O)N[C@@H](CC(C)C)C(=O)N[C@@H](CCCCNC(=O)COCCOCCNC(=O)COCCOCCNC(=O)CC[C@H](NC(=O)CCCCCCCCCCCCCCCCC(=O)O)C(=O)O)C(=O)N[C@@H](CCC(N)=O)C(=O)N[C@H](C(=O)N[C@@H](CC(C)C)C(=O)N[C@@H](CC(C)C)C(=O)N[C@@H](CCCCN)C(=O)N[C@@H](CCC(N)=O)C(=O)N[C@@H](CCC(=O)O)C(=O)N[C@@H](CCCNC(=N)N)C(=O)N[C@@H](CCC(N)=O)C(=O)N[C@@H](CCCCN)C(=O)N[C@@H](CCCCN)C(=O)N[C@@H](CCC(N)=O)C(=O)N[C@@H](CCCNC(=N)N)C(=O)N[C@@H](CCC(=O)O)C(=O)N[C@@H](CCC(N)=O)C(=O)N[C@@H](C)C(=O)N[C@@H](CCC(=O)O)C(=O)N[C@@H](CCCCN)C(=O)N[C@@H](CC(N)=O)C(=O)N[C@@H](CCCCN)C(=O)N[C@@H](CCC(N)=O)C(=O)N[C@H](C(=O)N[C@@H](CC(C)C)C(=O)N[C@@H](CCC(=O)O)C(=O)N[C@@H](CCC(N)=O)C(=O)N[C@H](C(N)=O)C(C)C)[C@@H](C)CC)[C@@H](C)CC)[C@@H](C)CC)C(C)C)C(C)C` [compound 137] (H-IVLSLD[dV]PIKLK([AEEA-AEEA-γGlu-C18 diacid])QILLKQERQKKQREQAEKNKQILEQV-NH2; N-terminus assumed): the “Apparent Rh [nm] 0 weeks” value is recorded as 3.31 ± 0.15 nm in data set [1] (setting [3]), 3.50 ± 0.03 nm in data set [1] (setting [10]), 2.66 ± 0.13 nm in data set [1] (setting [4]) and 2.38 ± 0.13 nm in data set [1] (setting [11]). For the same compound, the “Scattering Intensity (I) [%] 0 weeks” value in data set [1] (setting [3]) came out at 94 ± 1%; in data set [1] (setting [10]), 100 ± 0%; in data set [1] (setting [4]) it was 84 ± 6%; in data set [1] (setting [11]), 98 ± 2%. In addition, the “Apparent Rh [nm] 4 weeks” value was 3.34 ± 0.25 nm in data set [1] (setting [3]), 3.60 ± 0.10 nm in data set [1] (setting [10]), 2.65 ± 0.11 nm in data set [1] (setting [4]) and 2.59 ± 0.07 nm in data set [1] (setting [11]). For the same compound, the “Scattering Intensity (I) [%] 4 weeks” value in data set [1] (setting [3]) came out at 100 ± 0%; in data set [1] (setting [10]), 100 ± 0%; in data set [1] (setting [4]) it was 88 ± 9%; in data set [1] (setting [11]), 100 ± 0%. For the same compound, the solubility at 1 h was more than 8600 µg/mL in data set [2] (setting [5]), more than 8400 µg/mL in data set [2] (setting [6]) and more than 8700 µg/mL in data set [2] (setting [7]). The figures for the concentration giving a half-maximal response (EC50) on human CRF2α receptor (setting [8]), on human CRF2α receptor (setting [9]) and with rat CRF2R α receptor were 0.04 nM, 1.78 nM and 0.14 nM, respectively.
With `CC[C@H](C)[C@H](N)C(=O)N[C@H](C(=O)N[C@@H](CC(C)C)C(=O)N[C@@H](CO)C(=O)N[C@@H](CC(C)C)C(=O)N[C@@H](CC(=O)O)C(=O)N[C@@H](C(=O)N1CCC[C@H]1C(=O)N[C@H](C(=O)N[C@@H](CCCCN)C(=O)N[C@@H](CC(C)C)C(=O)N[C@@H](CCCCNC(=O)COCCOCCNC(=O)COCCOCCNC(=O)CC[C@H](NC(=O)CCCCCCCCCCCCCCCCC(=O)O)C(=O)O)C(=O)N[C@@H](CCC(N)=O)C(=O)N[C@H](C(=O)N[C@@H](CC(C)C)C(=O)N[C@@H](CC(C)C)C(=O)N[C@@H](CCCCN)C(=O)N[C@@H](CCC(N)=O)C(=O)N[C@@H](CCC(=O)O)C(=O)N[C@@H](CCCNC(=N)N)C(=O)N[C@@H](CCC(N)=O)C(=O)N[C@@H](CCCCN)C(=O)N[C@@H](CCCCN)C(=O)N[C@@H](CCC(N)=O)C(=O)N[C@@H](CCCNC(=N)N)C(=O)N[C@@H](CCC(N)=O)C(=O)N[C@@H](CCC(N)=O)C(=O)N[C@@H](C)C(=O)N[C@@H](CCC(=O)O)C(=O)N[C@@H](CCCCN)C(=O)N[C@@H](CC(N)=O)C(=O)N[C@@H](CCCCN)C(=O)N[C@@H](CCC(N)=O)C(=O)N[C@H](C(=O)N[C@@H](CC(C)C)C(=O)N[C@@H](C)C(=O)N[C@@H](CCC(N)=O)C(=O)N[C@H](C(N)=O)C(C)C)[C@@H](C)CC)[C@@H](C)CC)[C@@H](C)CC)C(C)C)C(C)C` [compound 139] (H-IVLSLD[dV]PIKLK([AEEA-AEEA-γGlu-C18 diacid])QILLKQERQKKQRQQAEKNKQILAQV-NH2; N-terminus assumed), the results for the “Apparent Rh [nm] 0 weeks” value in data set [1] (setting [3]), in data set [1] (setting [10]) and in data set [1] (setting [4]) were 3.04 ± 0.08 nm, 2.94 ± 0.32 nm and 2.38 ± 0.23 nm, respectively. Moreover, the figures for the “Scattering Intensity (I) [%] 0 weeks” value in data set [1] (setting [3]), in data set [1] (setting [10]) and in data set [1] (setting [4]) were 98 ± 1%, 96 ± 5% and 96 ± 3%, respectively. Besides, the “Apparent Rh [nm] 4 weeks” value is 3.13 ± 0.22 nm in data set [1] (setting [3]), 3.11 ± 0.14 nm in data set [1] (setting [10]) and 2.56 ± 0.29 nm in data set [1] (setting [4]). The results for the “Scattering Intensity (I) [%] 4 weeks” value in data set [1] (setting [3]), in data set [1] (setting [10]) and in data set [1] (setting [4]) were 95 ± 4%, 93 ± 3% and 100 ± 0%, respectively. Further, the solubility at 1 h was more than 9100 µg/mL in data set [2] (setting [5]), more than 8600 µg/mL in data set [2] (setting [6]) and more than 8800 µg/mL in data set [2] (setting [7]). Moreover, the EC50 came out at 0.03 nM on human CRF2α receptor (setting [8]), 1.31 nM at human CRF2α receptor (setting [9]) and 0.1 nM in the data set with rat CRF2R α receptor.

The values above are taken from patent US12679878B2, “CRF2 receptor agonists and their use in therapy” (SANOFI, priority 2020, dated 2026).
